Results on 24 compounds are retold here after ChEMBL document CHEMBL1201862, “PubChem BioAssay data set” (2004).

Among the test systems are XF498; DMS-273; LXFL 529; HOP-18; M19-MEL; KM-20L2; SNB-78; DMS-114; RXF 631.
Holding throughout (assay): inhibition of tumour cell growth, NCI panel, 48 h

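In this assay, cells in 96-well plates receive the compound at five concentrations for 48 hours. Endpoints are linearly interpolated between the surrounding concentrations. Here, GI50 denotes the concentration required for 50% inhibition of growth.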 Calls of active or inactive are those of the source. No stated cut-off is given here; in the data, active = GI50 up to about 1.1 µM and inactive = higher. A value given as a limit tells only on which side of the number the result lay.

As for `O=c1[nH]c2ccccc2cc1C(Cl)=C(Cl)Cl`, the GI50 with XF498, in the assay with DMS-273, in the assay on LXFL 529, in the assay with HOP-18, with M19-MEL and with KM-20L2 was > 100 µM (inactive) in each case. Also, the GI50 in the assay on SNB-78 and with DMS-114 was > 100 µM (inactive) in each case.

Consider `Cc1nc2ccccc2c(=O)n1/N=C(\N=N\c1cc(Cl)ccc1Cl)c1ccc(N(C)C)cc1`, for which the GI50 is 2.79 µM (inactive) in the assay on XF498; 38.5 µM (inactive) with DMS-273; 29.9 µM (inactive) in the assay with LXFL 529; 75.9 µM (inactive) in the assay on HOP-18; > 100 µM (inactive) in the assay with M19-MEL; > 100 µM (inactive) in the assay on KM-20L2. Moreover, in the assay on DMS-114, the GI50 is 22.8 µM (inactive).

As for `CCOC(=O)Cc1nc(/C(C#N)=C/c2ccco2)[nH]c(=O)c1C#N`, the GI50 is > 100 µM (inactive) in the assay with DMS-273; > 100 µM (inactive) in the assay on LXFL 529; > 100 µM (inactive) in the assay on HOP-18; > 100 µM (inactive) in the assay on M19-MEL; > 100 µM (inactive) in the assay with KM-20L2; 37.8 µM (inactive) in the assay with SNB-78.

`Oc1nc(-c2ccccc2)cc(-c2ccccc2O)n1`: the GI50 with XF498 was 65 µM (inactive); with DMS-273, > 100 µM (inactive); in the assay on LXFL 529, 50.4 µM (inactive); with HOP-18 it was > 100 µM (inactive); in the assay on M19-MEL it was > 100 µM (inactive); in the assay on KM-20L2, 67.5 µM (inactive). Besides, the GI50 with SNB-78 was > 100 µM (inactive); with DMS-114 it was 58.5 µM (inactive).

As for `CCN(CC)C(c1ccc(N(C)C)cc1)C(c1ccc(N(C)C)cc1)N(CC)CC` (stereo unspecified), the GI50 with DMS-273 is 44.8 µM (inactive); in the assay on LXFL 529, 30.3 µM (inactive); in the assay with RXF 631, > 72.9 µM (inactive); in the assay with M19-MEL, 23.9 µM (inactive); in the assay on KM-20L2, 64 µM (inactive); with SNB-78, 21.2 µM (inactive). Also, in the assay on DMS-114, the GI50 was 14.5 µM (inactive).

For the compound `CC(=O)N(/N=C\c1ccc([N+](=O)[O-])cc1)c1ccccc1`, the GI50 in the assay with XF498, in the assay with DMS-273, with HOP-18, in the assay on RXF 631, in the assay on M19-MEL and with KM-20L2 was > 100 µM (inactive) throughout. For the same compound, the GI50 was > 100 µM (inactive) with SNB-78 and 99.8 µM (inactive) in the assay on DMS-114.

Take `Cc1c[nH]c2c1C13CC1CN(C(=O)c1cc4cc(NC(=O)c5cc6ccccc6o5)ccc4[nH]1)C3=CC2=O` (stereo unspecified): the GI50 in the assay on XF498, with HOP-18, with RXF 631, with M19-MEL, with KM-20L2 and in the assay on SNB-78 was < 0.001 µM (active) each time. The GI50 with DMS-114 is < 0.001 µM (active).

With `CCOC(=O)C1=C(Nc2ccc(Cl)c(Cl)c2)OC/C1=N\NS(=O)(=O)c1ccc(C)cc1`, the GI50 is 94 µM (inactive) with XF498; 46.9 µM (inactive) in the assay on LXFL 529; 27.5 µM (inactive) in the assay on HOP-18; 29.6 µM (inactive) with RXF 631; 94.6 µM (inactive) with M19-MEL; 31.4 µM (inactive) in the assay with KM-20L2. The GI50 in the assay with SNB-78 was > 100 µM (inactive); with DMS-114, 56.4 µM (inactive).

Turning to `N/C(=N\O)N/N=C/c1ccc(O)c(O)c1`, the GI50 in the assay with XF498 was > 100 µM (inactive); in the assay on DMS-273, 34.5 µM (inactive); in the assay on LXFL 529, > 100 µM (inactive); with HOP-18, > 100 µM (inactive); with RXF 631, > 100 µM (inactive); with M19-MEL it was > 100 µM (inactive). Moreover, the GI50 with KM-20L2, with SNB-78 and in the assay on DMS-114 was > 100 µM (inactive) each time.

As for `Cc1c(Cl)cccc1NC(=O)C(=O)c1c(O)c2ccc(O)cc2oc1=O`, the GI50 in the assay with XF498, in the assay with DMS-273, in the assay on LXFL 529, in the assay on HOP-18, in the assay on M19-MEL and with KM-20L2 was > 100 µM (inactive) throughout. Besides, the GI50 in the assay on SNB-78 and in the assay on DMS-114 was > 100 µM (inactive) each time.

Consider `O=C1c2cccc([N+](=O)[O-])c2C(=O)c2nccnc21`, for which the GI50 with DMS-273 is 3.5 µM (inactive); in the assay on HOP-18, 1.69 µM (inactive); in the assay on M19-MEL it was 0.122 µM (active); in the assay with KM-20L2 it was 2.7 µM (inactive); in the assay on SNB-78, 3.09 µM (inactive); with DMS-114, 0.982 µM (active).

Take `CCCN(CCC)c1c([N+](=O)[O-])cc(S(N)(=O)=O)cc1[N+](=O)[O-]` [ORYZALIN]: the GI50 with XF498 was 16.6 µM (inactive); in the assay with DMS-273, 18.8 µM (inactive); with LXFL 529, 16.1 µM (inactive); in the assay with HOP-18, 19.2 µM (inactive); with RXF 631 it was 18.6 µM (inactive); in the assay on M19-MEL, 20.2 µM (inactive). Further, the GI50 in the assay on KM-20L2 is 19.3 µM (inactive); in the assay on DMS-114 it was 19 µM (inactive).

Take `C=CCN1/C(=C2\SC(=S)N(c3ccc(C)cc3)C2=O)Sc2c1ncn(C)c2=O`: the GI50 was 73.5 µM (inactive) with XF498; > 100 µM (inactive) in the assay on DMS-273; 59.7 µM (inactive) with LXFL 529; > 100 µM (inactive) in the assay on M19-MEL; > 100 µM (inactive) with KM-20L2; 90.6 µM (inactive) with SNB-78. Moreover, the GI50 in the assay on DMS-114 is > 100 µM (inactive).

Regarding `COC(=O)C(C(=O)C(=O)Nc1ccccc1C(C)=O)c1nc2ccc(Cl)cc2nc1O` (stereo unspecified), the GI50 was > 100 µM (inactive) in the assay on LXFL 529; 53.5 µM (inactive) in the assay with HOP-18; > 100 µM (inactive) in the assay on RXF 631; > 100 µM (inactive) in the assay with M19-MEL; > 100 µM (inactive) with KM-20L2; > 100 µM (inactive) with SNB-78. In addition, the GI50 with DMS-114 was > 100 µM (inactive).

Consider `O=C1C(c2ccccc2)=C(c2ccccc2)C(c2ccc(Sc3ccc(C4=C(c5ccccc5)C(=O)C(c5ccccc5)=C4c4ccccc4)cc3)cc2)=C1c1ccccc1`, for which the GI50 in the assay with XF498 was > 100 µM (inactive); with DMS-273, > 100 µM (inactive); in the assay with RXF 631 it was > 100 µM (inactive); in the assay on M19-MEL it was > 100 µM (inactive); in the assay on KM-20L2, > 100 µM (inactive); with SNB-78, 87.5 µM (inactive). For the same compound, the GI50 in the assay on DMS-114 is > 100 µM (inactive).

With `CC(CCC[C@H](C)CO)[C@H]1[C@@H](O)C(O)C2[C@@H]3C[C@@H](O)C4(O)C[C@@H](O)CC[C@]4(C)C3CC[C@@]21C` (stereo partly specified), the GI50 with XF498, in the assay with DMS-273, in the assay on LXFL 529, in the assay with HOP-18, with M19-MEL and in the assay on KM-20L2 was > 100 µM (inactive) in each case. For the same compound, the values for the GI50 in the assay on SNB-78 and with DMS-114 were > 100 µM (inactive) and 84.7 µM (inactive), respectively.

Take `C(CCC[Te][Te]CCCCCCOC1CCCCO1)CCOC1CCCCO1` (stereo unspecified): the GI50 in the assay on XF498 was 10.2 µM (inactive); in the assay on LXFL 529, 9.02 µM (inactive); in the assay on HOP-18, 19.3 µM (inactive); with KM-20L2, 14.7 µM (inactive); in the assay on SNB-78, 17.1 µM (inactive); in the assay with DMS-114, 3.89 µM (inactive).

Consider `C/C(=N/N(C=O)C[n+]1ccccc1)C(CN(CC(C)C)CC(C)C)C(=O)Nc1ccc(C)cc1C` (stereo unspecified), for which the figures for the GI50 with RXF 631, with KM-20L2 and in the assay on DMS-114 were > 100 µM (inactive), > 100 µM (inactive) and 70.8 µM (inactive), respectively.

Take `CCN(CC)CCOc1ccc(CCc2cc(OC)c(OC)c(OC)c2)cc1`: the GI50 with XF498 was 23.7 µM (inactive); in the assay on DMS-273 it was 18.2 µM (inactive); with LXFL 529, 35.1 µM (inactive); in the assay on HOP-18 it was > 100 µM (inactive); with RXF 631, 53.5 µM (inactive); in the assay with M19-MEL, 23.8 µM (inactive). In addition, the GI50 in the assay on KM-20L2 is 31.9 µM (inactive); with SNB-78, > 100 µM (inactive); in the assay with DMS-114, 21.9 µM (inactive).

For `O=C(O)c1ccc(C2C(=O)N[C@@H]3CCC[C@H]23)cc1` (stereo partly specified), the GI50 in the assay on DMS-273, with LXFL 529, in the assay with HOP-18, with M19-MEL, in the assay on KM-20L2 and in the assay on SNB-78 was > 100 µM (inactive) in each case. The GI50 in the assay on DMS-114 was > 100 µM (inactive).

Turning to `CCOc1ccccc1/N=N/c1c(-c2ccccc2)nn(C(=O)CC(=O)Nc2cccc(Cl)c2)c1-c1ccccc1`, the GI50 with XF498 is 62.4 µM (inactive); in the assay on DMS-273, 22.5 µM (inactive); in the assay with LXFL 529, 39.5 µM (inactive); with HOP-18, > 100 µM (inactive); in the assay on M19-MEL it was 76.6 µM (inactive); in the assay on KM-20L2 it was 68.2 µM (inactive). For the same compound, the figures for the GI50 in the assay on SNB-78 and in the assay with DMS-114 were 59.3 µM (inactive) and 15.9 µM (inactive), respectively.

In the case of `O=C(CCCNC(=O)OCc1ccccc1)OCc1ccc2c(c1)C(=O)c1ccccc1C2=O`, the GI50 with LXFL 529 was > 100 µM (inactive); in the assay with RXF 631, > 78.7 µM (inactive); in the assay with KM-20L2, > 100 µM (inactive); in the assay with SNB-78 it was 38.4 µM (inactive); with DMS-114, > 97.1 µM (inactive).

`COc1ccc(/C(=C/n2ccnc2)C(=O)c2ccc(OC)c(OC)c2)cc1`: the GI50 in the assay with XF498, in the assay with DMS-273, with LXFL 529, with M19-MEL, in the assay on KM-20L2 and in the assay with DMS-114 was > 100 µM (inactive) each time.

Regarding `COc1ccccc1/C=C(\NC(=O)c1ccccc1)c1nc2ccccc2[nH]1`, the GI50 in the assay on XF498 is 36.1 µM (inactive); with LXFL 529, 29.9 µM (inactive); in the assay with HOP-18, 46.3 µM (inactive); in the assay with RXF 631 it was > 100 µM (inactive); with M19-MEL, 38.3 µM (inactive); in the assay with KM-20L2, 59.8 µM (inactive). Further, the values for the GI50 in the assay with SNB-78 and in the assay with DMS-114 were 53.3 µM (inactive) and 29.4 µM (inactive), respectively.
